Tests used:
Assay type in all cases: in vivo
[1] = test system: corn; assay: Test Example-4: phytotoxicity by a foliage treatment after weeds are generated under upland field conditions; details: 500 g a.i/ha, foliage treatment after emergence, about 14 days after treatment, score 0-5
From the text: (§1) Using the formulation prepared according to the methods described above, the herbicidal effect of the bicyclic pyrazolinone derivative of the invention according to the methods shown in Test Examples below was examined. The herbicidal effect with respect to the test weeds or the phytotoxicity with respect to the test crops was examined according to the following criteria, and evaluated in six stage scores of 0 to 5. A vat having an area of 65 cm^2 and a depth of 2 cm was filled with upland soil, then, seeds of Amaranthus viridis (green amaranthus), Abutilon theophrasti (velvetleaf), Chenopodium album (common lambsquarters), […]. While watering was suitably performed on there, the seeds were grown for 14 days. A wettable powder or an emulsifiable concentrate of the compound of the present invention prepared according to Formulation Example was diluted, and a spray treatment was uniformly performed on the foliage portion of the plant so as to be a predetermined dosage in the amount of water of 4000 L per hectare. The herbicidal effect with respect to the test weeds and the phytotoxicity with respect to corn about 14 days after the treatment were evaluated according to the evaluation criteria in six stages of 0 to 5 described above.

[2] = test system: Chenopodium album (common lambsquarters); assay: Test Example-4: herbicidal effect by a foliage treatment after weeds are generated under upland field conditions; details: 500 g a.i/ha, foliage treatment after emergence, about 14 days after treatment, score 0-5
From the text: as §1

[3] = test system: Abutilon theophrasti (velvetleaf); assay: as above; details: 500 g a.i/ha, foliage treatment after emergence, about 14 days after treatment, score 0-5
From the text: as §1

[4] = test system: Amaranthus viridis (green amaranthus); assay: as above; details: 500 g a.i/ha, foliage treatment after emergence, about 14 days after treatment, score 0-5
From the text: as §1

[5] = test system: Cyperus difformis (smallflower umbrella plant); assay: Test Example-1: herbicidal effect by a treatment before weeds are generated under submerged conditions; details: 500 g a.i/ha, pre-emergence treatment, about 15 days after treatment, score 0-5
Summary of the method: (§2)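 Paddy soil in cups was puddled, seeded with the weeds and kept flooded; compound as wettable powder or emulsifiable concentrate was diluted and applied into the water on the seeding day at a set dosage. Effect was scored about 15 days later on a 0–5 scale.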

[6] = test system: Monochoria vaginalis (monochoria); assay: as above; details: 500 g a.i/ha, pre-emergence treatment, about 15 days after treatment, score 0-5
Summary of the method: as §2

[7] = test system: Scirpus juncoides (bulrush); assay: as above; details: 500 g a.i/ha, pre-emergence treatment, about 15 days after treatment, score 0-5
Summary of the method: as §2

[8] = test system: Echinochloa oryzicola (barnyard grass); assay: as above; details: 500 g a.i/ha, pre-emergence treatment, about 15 days after treatment, score 0-5
Summary of the method: as §2

[9] = test system: Eleocharis acicularis (needle spikerush); assay: as above; details: 500 g a.i/ha, pre-emergence treatment, about 15 days after treatment, score 0-5
Summary of the method: as §2

[10] = test system: other annual broad leaf weeds (Lindernia procumbens, Rotala indica, Elatine triandra); assay: as above; details: 500 g a.i/ha, pre-emergence treatment, about 15 days after treatment, score 0-5
Summary of the method: as §2

Structure (SMILES) | Phytotoxicity Corn [1] | Herbicidal effect Chenopodium album [2] | Herbicidal effect Abutilon theophrast [3] | Herbicidal effect Amaranthus viridis [4] | Herbicidal effect Cyperus difformis [5] | Herbicidal effect Monochoria vaginalis [6] | Herbicidal effect Scirpus juncoides [7] | Herbicidal effect Echinochloa oryzicola [8] | Herbicidal effect Eleocharis acicularis [9] | Herbicidal effect Broadleaf weed [10]
C#CCOc1cc(-c2c(Cl)n3n(c2=O)CCOCC3)ccc1Cl [Example 1-66] | 1 (Herbicidal effect/phytotoxicity was 10% to 30%) | 5 (Herbicidal effect/phytotoxicity was 90% or greater) | 5 (Herbicidal effect/phytotoxicity was 90% or greater) | 5 (Herbicidal effect/phytotoxicity was 90% or greater) |  |  |  |  |  | 
CC(C)Oc1cccc(Oc2cc(-c3c(Cl)n4n(c3=O)CCCC4)c(F)cc2Cl)c1 [Example 3-11] | 0 (Herbicidal effect/phytotoxicity was 0% to 10%) | 5 (Herbicidal effect/phytotoxicity was 90% or greater) | 5 (Herbicidal effect/phytotoxicity was 90% or greater) | 5 (Herbicidal effect/phytotoxicity was 90% or greater) |  |  |  |  |  | 
CC1(COc2cc(-c3c(Cl)n4n(c3=O)CCCC4)c(F)cc2Cl)CC(c2ccccc2)=NO1 (stereo not shown) [Example 4-1] | 0 (Herbicidal effect/phytotoxicity was 0% to 10%) | 5 (Herbicidal effect/phytotoxicity was 90% or greater) | 5 (Herbicidal effect/phytotoxicity was 90% or greater) | 5 (Herbicidal effect/phytotoxicity was 90% or greater) |  |  |  |  |  | 
COc1ccccc1Oc1cc(-c2c(Cl)n3n(c2=O)CCCC3)c(F)cc1Cl [Example 3-2] | 2 (Herbicidal effect/phytotoxicity was 30% to 50%) | 5 (Herbicidal effect/phytotoxicity was 90% or greater) | 5 (Herbicidal effect/phytotoxicity was 90% or greater) | 5 (Herbicidal effect/phytotoxicity was 90% or greater) |  |  |  |  |  | 
C=CCOC(=O)C=C(COc1cc(-c2c(Cl)n3n(c2=O)CCCC3)c(F)cc1Cl)OC (mixture of isomers) [Example 2-8] | 2 (Herbicidal effect/phytotoxicity was 30% to 50%) | 5 (Herbicidal effect/phytotoxicity was 90% or greater) | 5 (Herbicidal effect/phytotoxicity was 90% or greater) | 5 (Herbicidal effect/phytotoxicity was 90% or greater) |  |  |  |  |  | 
C#CCOc1cc(C)ccc1Oc1cc(-c2c(Cl)n3n(c2=O)CCCC3)c(F)cc1Cl [Example 3-43] | 0 (Herbicidal effect/phytotoxicity was 0% to 10%) | 5 (Herbicidal effect/phytotoxicity was 90% or greater) | 5 (Herbicidal effect/phytotoxicity was 90% or greater) | 5 (Herbicidal effect/phytotoxicity was 90% or greater) |  |  |  |  |  | 
CC1(COc2cc(-c3c(Cl)n4n(c3=O)CCCC4)c(F)cc2Cl)CC(c2ccc(Cl)cc2Cl)=NO1 (stereo not shown) [Example 4-12] | 1 (Herbicidal effect/phytotoxicity was 10% to 30%) | 5 (Herbicidal effect/phytotoxicity was 90% or greater) | 5 (Herbicidal effect/phytotoxicity was 90% or greater) | 5 (Herbicidal effect/phytotoxicity was 90% or greater) |  |  |  |  |  | 
CC(C)Oc1cc(-c2c(Cl)n3n(c2=O)CCCC3)ccc1Cl [Example 1-49] | 0 (Herbicidal effect/phytotoxicity was 0% to 10%) | 5 (Herbicidal effect/phytotoxicity was 90% or greater) | 5 (Herbicidal effect/phytotoxicity was 90% or greater) | 5 (Herbicidal effect/phytotoxicity was 90% or greater) |  |  |  |  |  | 
C=CCOc1cc(-c2c(Cl)n3n(c2=O)CCCC3)ccc1Cl [Example 1-59] | 0 (Herbicidal effect/phytotoxicity was 0% to 10%) | 5 (Herbicidal effect/phytotoxicity was 90% or greater) | 5 (Herbicidal effect/phytotoxicity was 90% or greater) | 5 (Herbicidal effect/phytotoxicity was 90% or greater) |  |  |  |  |  | 
COC(=O)C=C(COc1cc(-c2c(Cl)n3n(c2=O)CCCC3)c(F)cc1Cl)OC (mixture of isomers) [Example 2-1] | 1 (Herbicidal effect/phytotoxicity was 10% to 30%) | 5 (Herbicidal effect/phytotoxicity was 90% or greater) | 5 (Herbicidal effect/phytotoxicity was 90% or greater) | 5 (Herbicidal effect/phytotoxicity was 90% or greater) |  |  |  |  |  | 
C#CC(C)Oc1cc(-c2c(Cl)n3n(c2=O)CCCC3)ccc1Cl (stereo not shown) [Example 1-67] | 0 (Herbicidal effect/phytotoxicity was 0% to 10%) | 5 (Herbicidal effect/phytotoxicity was 90% or greater) | 5 (Herbicidal effect/phytotoxicity was 90% or greater) | 5 (Herbicidal effect/phytotoxicity was 90% or greater) |  |  |  |  |  | 
C=CCOc1cc(C)ccc1Oc1cc(-c2c(Cl)n3n(c2=O)CCCC3)c(F)cc1Cl [Example 3-42] | 0 (Herbicidal effect/phytotoxicity was 0% to 10%) | 5 (Herbicidal effect/phytotoxicity was 90% or greater) | 5 (Herbicidal effect/phytotoxicity was 90% or greater) | 5 (Herbicidal effect/phytotoxicity was 90% or greater) |  |  |  |  |  | 
CCCOC(=O)C=C(COc1cc(-c2c(Cl)n3n(c2=O)CCCC3)c(F)cc1Cl)OCC (mixture of isomers) [Example 2-23] | 0 (Herbicidal effect/phytotoxicity was 0% to 10%) | 5 (Herbicidal effect/phytotoxicity was 90% or greater) | 5 (Herbicidal effect/phytotoxicity was 90% or greater) | 5 (Herbicidal effect/phytotoxicity was 90% or greater) |  |  |  |  |  | 
COc1cc(C)ccc1Oc1cc(-c2c(Cl)n3n(c2=O)CCCC3)c(F)cc1Cl [Example 3-41] | 1 (Herbicidal effect/phytotoxicity was 10% to 30%) | 5 (Herbicidal effect/phytotoxicity was 90% or greater) | 5 (Herbicidal effect/phytotoxicity was 90% or greater) | 5 (Herbicidal effect/phytotoxicity was 90% or greater) |  |  |  |  |  | 
C=C(COc1cc(-c2c(Cl)n3n(c2=O)CCCC3)c(F)cc1Cl)c1ccc(OCC)c(F)c1F [Example 1-230] | 0 (Herbicidal effect/phytotoxicity was 0% to 10%) | 5 (Herbicidal effect/phytotoxicity was 90% or greater) | 5 (Herbicidal effect/phytotoxicity was 90% or greater) | 5 (Herbicidal effect/phytotoxicity was 90% or greater) |  |  |  |  |  | 
CCS(=O)(=O)Nc1cc(-c2c(Cl)n3n(c2=O)CCCC3)c(F)cc1Cl [Example 5-51] | 0 (Herbicidal effect/phytotoxicity was 0% to 10%) | 5 (Herbicidal effect/phytotoxicity was 90% or greater) | 5 (Herbicidal effect/phytotoxicity was 90% or greater) | 5 (Herbicidal effect/phytotoxicity was 90% or greater) |  |  |  |  |  | 
COC(=O)C=C(COc1ccccc1Oc1cc(-c2c(Cl)n3n(c2=O)CCCC3)c(F)cc1Cl)OC [Example 3-23] | 0 (Herbicidal effect/phytotoxicity was 0% to 10%) | 5 (Herbicidal effect/phytotoxicity was 90% or greater) | 5 (Herbicidal effect/phytotoxicity was 90% or greater) | 5 (Herbicidal effect/phytotoxicity was 90% or greater) |  |  |  |  |  | 
CCCOC(=CC(=O)OCC)COc1cc(-c2c(Cl)n3n(c2=O)CCCC3)c(F)cc1Cl (mixture of isomers) [Example 2-20] | 0 (Herbicidal effect/phytotoxicity was 0% to 10%) | 5 (Herbicidal effect/phytotoxicity was 90% or greater) | 5 (Herbicidal effect/phytotoxicity was 90% or greater) | 5 (Herbicidal effect/phytotoxicity was 90% or greater) |  |  |  |  |  | 
CC1(COc2cc(-c3c(Cl)n4n(c3=O)CCCC4)c(F)cc2Cl)CC(c2ccc(Cl)cc2)=NO1 (stereo not shown) [Example 4-8] | 2 (Herbicidal effect/phytotoxicity was 30% to 50%) | 5 (Herbicidal effect/phytotoxicity was 90% or greater) | 5 (Herbicidal effect/phytotoxicity was 90% or greater) | 5 (Herbicidal effect/phytotoxicity was 90% or greater) |  |  |  |  |  | 
COc1cc(-c2c(Cl)n3n(c2=O)CCCCC3)c(Cl)cc1Cl [Example 1-293] |  |  |  |  | 5 (Herbicidal effect/phytotoxicity was 90% or greater) | 5 (Herbicidal effect/phytotoxicity was 90% or greater) | 5 (Herbicidal effect/phytotoxicity was 90% or greater) | 5 (Herbicidal effect/phytotoxicity was 90% or greater) | 5 (Herbicidal effect/phytotoxicity was 90% or greater) | 5 (Herbicidal effect/phytotoxicity was 90% or greater)

— patent US9580444B2, “Polycyclic pyrazolinone derivative and herbicide comprising same as effective component thereof” (priority 2013, dated 2017)
